Laboratory results as given in US9029337B2, “Modulation of factor 7 expression” (Isis Pharmaceuticals, Inc., priority 2007, dated 2015).
Strand notation (5' to 3'): a small letter for the sugar, then the base; units joined by * are phosphorothioate-linked, units joined directly phosphodiester-linked; [ ] holds rarer units or linkages, { } end groups; capitals alone tell only the bases. e = 2'-O-(2-methoxyethyl) (MOE); [5mC] = 5-methylcytosine; d = 2'-deoxy (DNA)

System: human Factor 7 mRNA
Assay: Antisense inhibition of human Factor 7 mRNA in HepB3 cells, 50 nM antisense oligonucleotide, lipofectin
Assay type: cell-based
Conditions: for % Inhibition: Table 1, 50 nM, lipofectin, approximately 24 hours, relative to untreated control cells
Procedure: Antisense oligonucleotides targeted to a Factor 7 nucleic acid were tested for their effects on Factor 7 mRNA in vitro. Cultured HepB3 cells at a density of 4,000 cells per well were transfected using lipofectin reagent with 50 nM antisense oligonucleotide. After a treatment period of approximately 24 hours, RNA was isolated from the cells and Factor 7 mRNA levels were measured by real-time RT-PCR, as described herein. Factor 7 mRNA levels were adjusted according to total RNA content as measured by RIBOGREEN®. Results are presented as percent inhibition of Factor 7, relative to untreated control cells.
(§1) Antisense oligonucleotides targeted to a Factor 7 nucleic acid were designed and tested for their effects on Factor 7 mRNA in vitro. Certain antisense oligonucleotides from Table 3 were also retested for their effects on Factor 7 mRNA in vitro. Cultured HepB3 cells at a density of 4,000 cells per well were transfected using lipofectin reagent with 50 nM antisense oligonucleotide. After a treatment period of approximately 24 hours, RNA was isolated from the cells and Factor 7 mRNA levels were measured by real-time RT-PCR, as described herein. Human Factor 7 primer probe set RTS 2927 was used to measure mRNA levels. Factor 7 mRNA levels were adjusted according to total RNA content as measured by RIBOGREEN®. Results are presented as percent inhibition of Factor 7, relative to untreated control.
as §1, with “tested” for “tested for their effects on Factor 7 mRNA in vitro. Certain antisense oligonucleotides from Table 3 were also retested”
These gapmers were designed by creating gapmers shifted slightly upstream and downstream (i.e. “microwalk”) of the original gapmers from Table 7. Gapmers were also created with various motifs, e.g. 5-10-5 MOE, 3-14-3 MOE, and 2-13-5 MOE. These gapmers were tested in vitro. Cultured HepB3 cells at a density of 4,000 cells per well were transfected using lipofectin reagent with 50 nM antisense oligonucleotide. After a treatment period of approximately 24 hours, RNA was isolated from the cells and Factor 7 mRNA levels were measured by real-time RT-PCR. Factor 7 mRNA levels were adjusted according to total RNA content, as measured by RIBOGREEN®. Results are presented as percent inhibition of Factor 7, relative to untreated control cells.

Substance	% Inhibition	% Inhibition (human Factor 7 mRNA levels) (oligonucleotides targeted to nucleobases 14707 to 14732 of SEQ ID NO: 1 (Table 11))
407634 (antisense eG*eT*eG*eA*e[5mC]*dT*dG*d[5mC]*dT*dG*d[5mC]*dA*dG*dG*d[5mC]*eA*eG*eT*e[5mC]*e[5mC]) [compound 407634]	24%	–
407635 (antisense eT*eG*eG*e[5mC]*e[5mC]*d[5mC]*d[5mC]*dA*dG*d[5mC]*dT*dG*dA*d[5mC]*dG*eA*eT*eG*e[5mC]*e[5mC]) [compound 407635]	64%	–
407636 (antisense eG*e[5mC]*eA*eG*e[5mC]*d[5mC]*d[5mC]*dT*dG*dG*d[5mC]*d[5mC]*d[5mC]*d[5mC]*dA*eG*e[5mC]*eT*eG*eA) [compound 407636]	75%	–
407637 (antisense eG*eT*eA*e[5mC]*eT*dG*dG*dG*dA*dG*dA*d[5mC]*d[5mC]*d[5mC]*dT*eG*eG*eT*eG*eT) [compound 407637]	71%	–
407638 (antisense eG*e[5mC]*e[5mC]*eA*e[5mC]*dT*d[5mC]*dG*dA*dT*dG*dT*dA*d[5mC]*dT*eG*eG*eG*eA*eG) [compound 407638]	0%	–
407639 (antisense eT*eT*eT*eG*e[5mC]*dA*dG*d[5mC]*d[5mC]*dA*d[5mC]*dT*d[5mC]*dG*dA*eT*eG*eT*eA*e[5mC]) [compound 407639]	76%	–
407640 (antisense eG*e[5mC]*eA*eT*eG*dA*dG*d[5mC]*dT*dT*dT*dT*dG*d[5mC]*dA*eG*e[5mC]*e[5mC]*eA*e[5mC]) [compound 407640]	79%	–
407642 (antisense e[5mC]*eA*eG*e[5mC]*eA*dG*d[5mC]*d[5mC]*dT*dG*dA*dG*dG*d[5mC]*d[5mC]*eA*eG*e[5mC]*eA*eG) [compound 407642]	78%	63%
407644 (antisense eG*eA*eG*eG*eA*d[5mC]*dA*dG*d[5mC]*dA*d[5mC]*dA*d[5mC]*dA*dT*eG*eG*eA*eG*eT) [compound 407644]	66%	–
407645 (antisense eG*eA*eG*eA*eG*d[5mC]*dT*dA*dA*dA*d[5mC]*dA*dA*d[5mC]*d[5mC]*eG*e[5mC]*e[5mC]*eT*eT) [compound 407645]	65%	–
407646 (antisense eG*eG*eT*eG*eA*dT*dG*d[5mC]*dT*dT*d[5mC]*dT*dG*dA*dA*eT*eT*eG*eT*e[5mC]) [compound 407646]	81%	–
407647 (antisense eG*e[5mC]*eA*eG*e[5mC]*d[5mC]*dG*dT*dT*dT*dA*dT*dT*dG*dT*eG*eA*eA*eG*e[5mC]) [compound 407647]	83%	–
407649 (antisense eG*eA*eG*eG*eG*dT*dT*d[5mC]*dA*dT*dT*dT*d[5mC]*dA*dG*eT*eG*eA*eT*eG) [compound 407649]	24%	–
407650 (antisense e[5mC]*e[5mC]*eA*eT*eG*dT*dG*dA*dG*dG*dG*dT*dT*d[5mC]*dA*eT*eT*eT*e[5mC]*eA) [compound 407650]	39%	–
407651 (antisense eA*eG*e[5mC]*e[5mC]*eT*d[5mC]*dA*dA*dA*d[5mC]*dA*dT*d[5mC]*dT*dA*eT*e[5mC]*eA*eA*eA) [compound 407651]	32%	–
407652 (antisense eT*eG*eG*eG*eA*dG*d[5mC]*dT*dA*d[5mC]*dA*dG*d[5mC]*d[5mC]*dT*e[5mC]*eA*eA*eA*e[5mC]) [compound 407652]	30%	–
407653 (antisense eA*eA*eT*eA*eT*d[5mC]*dA*dT*dT*dG*dA*d[5mC]*dA*dA*dG*eG*eG*e[5mC]*eT*eG) [compound 407653]	21%	–
407654 (antisense e[5mC]*e[5mC]*eA*e[5mC]*eT*dG*d[5mC]*dA*dG*d[5mC]*d[5mC]*dA*dG*dG*dG*e[5mC]*e[5mC]*eT*eG*eG) [compound 407654]	34%	–
407655 (antisense eA*eG*eA*eG*eT*dG*d[5mC]*dA*dG*d[5mC]*dT*dT*dG*d[5mC]*d[5mC]*eA*eG*eG*eT*e[5mC]) [compound 407655]	28%	–
407656 (antisense e[5mC]*eA*eG*e[5mC]*eA*dA*dG*dA*dG*dT*dG*d[5mC]*dA*dG*d[5mC]*eT*eT*eG*e[5mC]*e[5mC]) [compound 407656]	43%	–

Substance	% Inhibition	% Inhibition (human Factor 7 mRNA levels) (oligonucleotides targeted to nucleobases 14707 to 14732 of SEQ ID NO: 1 (Table 11))
407657 (antisense eG*eG*eG*eA*e[5mC]*dT*d[5mC]*dA*dG*d[5mC]*dA*dA*dG*dA*dG*eT*eG*e[5mC]*eA*eG) [compound 407657]	26%	–
407658 (antisense eG*e[5mC]*eT*eT*eG*d[5mC]*d[5mC]*dG*dG*dA*dG*dT*d[5mC]*dT*dG*eA*eG*eT*eG*eG) [compound 407658]	16%	–
407659 (antisense eG*eA*eT*eG*eG*d[5mC]*dA*dT*d[5mC]*dG*dA*dG*dT*d[5mC]*d[5mC]*eA*e[5mC]*eT*e[5mC]*eT) [compound 407659]	55%	–
407660 (antisense eG*e[5mC]*eT*e[5mC]*eT*dG*dA*dA*dG*dT*dA*dG*dA*dT*dG*eA*eT*eG*e[5mC]*e[5mC]) [compound 407660]	16%	–
407661 (antisense eT*eT*eT*eA*e[5mC]*dA*dA*dG*dA*dG*d[5mC]*dA*dG*dG*dG*eT*eG*e[5mC]*e[5mC]*eT) [compound 407661]	47%	–
407663 (antisense eT*eT*eG*e[5mC]*eA*dG*dG*d[5mC]*dA*dG*dG*dA*d[5mC]*dT*dG*eG*eT*eG*eG*eT) [compound 407663]	44%	–
407664 (antisense e[5mC]*eA*eG*eG*eG*d[5mC]*dG*dA*dG*dG*d[5mC]*dA*dA*d[5mC]*d[5mC]*e[5mC]*e[5mC]*eG*eT*eG) [compound 407664]	70%	–
407665 (antisense eG*eT*eT*eA*e[5mC]*dG*dA*dA*dG*dA*d[5mC]*dT*dG*dG*dG*eA*eA*eA*eT*eG) [compound 407665]	29%	–
407666 (antisense eT*e[5mC]*e[5mC]*e[5mC]*e[5mC]*dA*dG*dG*dA*d[5mC]*dA*dT*d[5mC]*dT*dG*eG*eA*eA*e[5mC]*eT) [compound 407666]	52%	–
407667 (antisense eG*eT*eG*eG*e[5mC]*d[5mC]*dA*dT*dG*d[5mC]*d[5mC]*d[5mC]*dT*dG*dG*eG*eT*e[5mC]*eA*eG) [compound 407667]	71%	–
407668 (antisense eG*eA*eA*eG*e[5mC]*d[5mC]*dT*dT*dA*d[5mC]*d[5mC]*dT*dG*d[5mC]*d[5mC]*eA*eT*eG*eG*eA) [compound 407668]	54%	–
407669 (antisense eT*eA*eG*eA*e[5mC]*d[5mC]*d[5mC]*dT*d[5mC]*dA*dG*dT*dG*dA*dG*eT*eG*eT*e[5mC]*eG) [compound 407669]	57%	–
407886 (antisense eG*e[5mC]*eA*eG*eA*dG*dG*dA*dG*d[5mC]*d[5mC]*dT*dG*dA*dG*eG*eG*e[5mC]*e[5mC]*eT) [compound 407886]	72%	–
407887 (antisense e[5mC]*e[5mC]*eA*eG*eG*d[5mC]*dA*dG*d[5mC]*d[5mC]*d[5mC]*dT*dG*dA*dA*eG*e[5mC]*e[5mC]*e[5mC]*eA) [compound 407887]	78%	–
407888 (antisense e[5mC]*eG*eA*eA*eG*dA*d[5mC]*dT*dG*d[5mC]*dA*dG*d[5mC]*d[5mC]*dA*eG*eG*e[5mC]*eA*eG) [compound 407888]	34%	–
407889 (antisense eT*e[5mC]*e[5mC]*eT*eG*dG*dG*dT*dT*dA*d[5mC]*dG*dA*dA*dG*eA*e[5mC]*eT*eG*e[5mC]) [compound 407889]	54%	–
407890 (antisense e[5mC]*eA*eG*eG*eG*dA*dG*d[5mC]*d[5mC]*d[5mC]*dG*dG*d[5mC]*d[5mC]*dG*e[5mC]*eA*eG*e[5mC]*eT) [compound 407890]	60%	–
407891 (antisense e[5mC]*eA*eT*eG*eG*dA*d[5mC]*dT*dT*dG*dA*dG*dG*d[5mC]*dA*e[5mC]*eA*e[5mC]*eT*eG) [compound 407891]	66%	–
407892 (antisense e[5mC]*e[5mC]*e[5mC]*e[5mC]*eA*dT*dT*d[5mC]*dT*dG*dG*d[5mC]*dA*dT*dG*eG*eA*e[5mC]*eT*eT) [compound 407892]	68%	–
407893 (antisense eT*e[5mC]*eG*eA*eA*dG*dG*d[5mC]*dA*dG*dG*dG*dA*dG*dG*e[5mC]*eA*eG*eA*eA) [compound 407893]	33%	–
